Laboratory results from patent US4310660A, “Lincomycin compounds” (The Upjohn Company, priority 1980, dated 1982).
≈ marks a conversion by molar mass, not a printed value. Read-outs that look alike come from different tables or passages of the source.

Legend:
[1] = system: Salmonella schottmuelleri; experiment: MIC vs. aerobic bacteria, microplate broth-dilution (BHI); type: cell-based; conditions: Salmonella
Method: (§1) The Minimal Inhibitory Concentration (MIC's) of both compounds Vs. aerobic bacteria is determined using a standard microplate broth-dilution method. Brain Heart Infusion (BHI-Difco) broth medium is used, and the plates are incubated at 37° C. for 20 hrs.

Diplococcus pneumoniae = experiment: as above; type: cell-based; conditions: Streptococcus pneumoniae
Method: as §1

Pseudomonas aeruginosa = experiment: as above; type: cell-based
Method: as §1

Escherichia coli = experiment: as above; type: cell-based
Method: as §1

Streptococcus faecalis = experiment: as above; type: cell-based; conditions: Enterococcus faecalis
Method: as §1

Klebsiella pneumoniae = experiment: as above; type: cell-based; conditions: Klebsiella pneumoniae
Method: as §1

Proteus vulgaris = experiment: as above; type: cell-based; conditions: Proteus vulgaris, UC93, 20 h, P. vulgaris UC 93; read-out: MIC
Method: as §1

Staphylococcus aureus = experiment: as above; type: cell-based; conditions: Staphylococcus aureus
S. lutea [2] = experiment: MIC, test procedure as given supra; type: cell-based; conditions: Micrococcus luteus, UC130, 20 h; S. lutea UC 130
Method: as §1
(§2) The Minimal Inhibitory Concentration (MIC's) of a representative number of the compounds prepared in Examples 2-8 follows. The test procedure is as given supra.

S. hemolyticus [3] = experiment: MIC, test procedure as given supra; type: cell-based; conditions: UC152, 20 h, S. hemolyticus UC 152; read-out: MIC
Method: as §1, §2

S. lutea [4] = experiment: Qual. Assay vs. S. lutea; type: cell-based; conditions: qualitative
Streptococcus pyogenes = experiment: MIC vs. aerobic bacteria, microplate broth-dilution (BHI); type: cell-based; conditions: UC152, UC 152, read-out: Minimal Inhibitory Concentration (MIC)
Method: as §1

S. hemolyticus [5] = experiment: Mouse Protection Test; type: in vivo; conditions: for ED50: 168 h, read-out: Median Protective Dose (CD50)
From the text: (§3) Immediately before use, the suspensions were thawed quickly and properly diluted. Infection was via the intrapertioneal route.
(§4) Treatment of the infected groups was begun immediately and continued once per day for 4 days (first 24 hr period=1). Groups of untreated mice served as virulence controls for the culture.
(§5) Seven days after the treatment regimen was begun the surviving animals were sacrificed and the median protective dose of the antibiotic calculated on the basis of mortality rates in the treatment groups. The median protective dose and its 95% confidence interval were calculated according to the method of Spearmen & Karber as programmed on a 360 digital computer.

S. aureus = experiment: Mouse Protection Test; type: in vivo; conditions: for ED50: Staphylococcus aureus, read-out: Median Protective Dose (CD50)
From the text: as §3, §4, §5

D. pneumoniae III = experiment: Mouse Protection Test; type: in vivo; conditions: for ED50: Streptococcus pneumoniae, 168 h, read-out: Median Protective Dose (CD50); for ED50 / Median Protective Dose (CD50): strain MPI III, two experiments listed; for Median Protective Dose (CD50): 10080 min, listed as U-60970E . Hcl
From the text: as §3, §4, §5
(§6) U-60,970E was also tested in vivo in standard laboratory mice which were experimentally infected with bacteria. The test was conducted in comparison with U-57,930E.

D. pneumoniae I = experiment: Mouse Protection Test; type: in vivo; conditions: for ED50: Streptococcus pneumoniae, 168 h, strain Felton I, read-out: Median Protective Dose (CD50)
From the text: as §3, §4, §5, §6

bacteria = experiment: antibacterial activity (general statement)
[6] = UC126, UC 126, read-out: Minimal Inhibitory Concentration (MIC)
[7] = UC41, Diplococcus pneumoniae I, UC 41, read-out: Minimal Inhibitory Concentration (MIC)
[8] = UC95, UC 95, read-out: Minimal Inhibitory Concentration (MIC)
[9] = UC45, UC 45, read-out: Minimal Inhibitory Concentration (MIC)
[10] = UC694, UC 694, read-out: Minimal Inhibitory Concentration (MIC)
[11] = UC58, UC 58, read-out: Minimal Inhibitory Concentration (MIC)
[12] = UC76, S. aureus UC 76, read-out: Minimal Inhibitory Concentration (MIC)
[13] = UC570, S. aureus UC 570, read-out: Minimal Inhibitory Concentration (MIC)
[14] = UC746, S. aureus UC 746, read-out: Minimal Inhibitory Concentration (MIC)

SMILES: CCc1ccnc(C(=O)N[C@@H]([C@H]2O[C@H](SC)[C@H](O)[C@@H](O)[C@H]2O)[C@H](C)O)c1 [U-45,659]
- MIC ([1]; UC126, 20 h, S. schottmuelleri UC 126): > 1000 µg/mL
- MIC (Diplococcus pneumoniae; UC41, 20 h, D. pneumoniae UC 41, read-out: MIC): 500 µg/mL (≈ 1290 µM)
- MIC (Pseudomonas aeruginosa; UC95, 20 h, Ps. aeruginosa UC 95, read-out: MIC): 1000 µg/mL (≈ 2590 µM)
- MIC (Escherichia coli; UC45, 20 h, E. coli UC 45, read-out: MIC): > 1000 µg/mL
- MIC (Streptococcus faecalis; UC694, 20 h, St. faecalis UC 694, read-out: MIC): > 1000 µg/mL
- MIC (Klebsiella pneumoniae; UC58, 20 h, K. pneumoniae UC 58, read-out: MIC): 1000 µg/mL (≈ 2590 µM)
- MIC (Proteus vulgaris): > 1000 µg/mL
- MIC (Staphylococcus aureus; UC76, 20 h, S. aureus UC 76, read-out: MIC): > 1000 µg/mL
- MIC (Staphylococcus aureus; UC570, 20 h, S. aureus UC 570, read-out: MIC): > 1000 µg/mL
- MIC (Staphylococcus aureus; UC746, 20 h, S. aureus UC 746, read-out: MIC): 1000 µg/mL (≈ 2590 µM)
- MIC (S. lutea [2]): 1000 µg/mL (≈ 2590 µM)
- MIC (S. hemolyticus [3]): 500 µg/mL (≈ 1290 µM)

SMILES: CS[C@H]1O[C@H]([C@H](NC(=O)c2cccnc2)[C@H](C)Cl)[C@H](O)[C@H](O)[C@H]1O [U-46,138]
- Qual. Assay vs. S. lutea (S. lutea [4]): Inactive

SMILES: CCCC[C@@H]1CCN[C@H](C(=O)N[C@@H]([C@H]2O[C@H](SC)[C@H](O)[C@@H](O)[C@H]2O)[C@H](C)Cl)C1 [U-60,970E, 4-Cis-n-Butyl-L-Pipecolic Acid Amide of 7-Cl-MTL]
- MIC [1, 6]: 31.2 µg/mL (≈ 71.1 µM)
- MIC (Diplococcus pneumoniae; [7]): 0.016 µg/mL (≈ 0.0364 µM)
- MIC (Pseudomonas aeruginosa; [8]): > 125 µg/mL
- MIC (Escherichia coli; [9]): 31.2 µg/mL (≈ 71.1 µM)
- MIC (Streptococcus faecalis; [10]): 0.25 µg/mL (≈ 0.569 µM)
- MIC (Klebsiella pneumoniae; [11]): 7.8 µg/mL (≈ 17.8 µM)
- MIC (Streptococcus pyogenes): 0.008 µg/mL (≈ 0.0182 µM)
- MIC (Staphylococcus aureus; [12]): 0.125 µg/mL (≈ 0.285 µM)
- MIC (Staphylococcus aureus; [13]): 0.25 µg/mL (≈ 0.569 µM)
- MIC (Staphylococcus aureus; [14]): 0.062 µg/mL (≈ 0.141 µM)
- ED50 (S. hemolyticus [5]; strain C203, oral): 2.18 mg/kg
- in vivo activity compared with U-57,930E (S. hemolyticus [5]; infected mice): essentially the same activity
- ED50 (S. hemolyticus [5]; sc, strain C203, subcutaneous): 0.35 mg/kg
- ED50 (S. aureus; UC76, 168 h, strain UC 76, oral): 8.12 mg/kg
- ED50 (S. aureus; UC76, sc, 168 h, strain UC 76, subcutaneous): 1.32 mg/kg
- in vivo activity compared with U-57,930E (S. aureus; infected mice): essentially the same activity
- ED50 (D. pneumoniae III; po, oral): 3.13 mg/kg
- ED50 (D. pneumoniae III; sc, subcutaneous): 0.44 mg/kg
- in vivo activity compared with U-57,930E (D. pneumoniae III; infected mice): significantly more active
- Median Protective Dose (CD50) (D. pneumoniae III; oral): 4.12 (2.93-5.81) mg/kg
- Median Protective Dose (CD50) (D. pneumoniae III; subcutaneous): 0.29 (0.21-0.41) mg/kg
- ED50 (D. pneumoniae I; oral): 4.42 mg/kg
- ED50 (D. pneumoniae I; sc, subcutaneous): 0.67 mg/kg
- in vivo activity compared with U-57,930E (D. pneumoniae I; infected mice): significantly more active

SMILES: CC[C@H]1CCN[C@@H](C(=O)N[C@@H]([C@H]2O[C@H](SC)[C@H](O)[C@@H](O)[C@H]2O)[C@H](C)Cl)C1 [V A]
- MIC [1, 6]: > 1000 µg/mL
- MIC (Diplococcus pneumoniae; [7]): 62.5 µg/mL (≈ 152 µM)
- MIC (Pseudomonas aeruginosa; [8]): > 1000 µg/mL
- MIC (Escherichia coli; [9]): > 1000 µg/mL
- MIC (Streptococcus faecalis; [10]): > 1000 µg/mL
- MIC (Klebsiella pneumoniae; [11]): > 1000 µg/mL
- MIC (Streptococcus pyogenes): 62.5 µg/mL (≈ 152 µM)
- antibacterial potency compared with related form (bacteria): not as potent an antibacterial agent as the L-cis compound
- MIC (Staphylococcus aureus; [12]): 250 µg/mL (≈ 608 µM)
- MIC (Staphylococcus aureus; [13]): 1000 µg/mL (≈ 2430 µM)
- MIC (Staphylococcus aureus; [14]): 125 µg/mL (≈ 304 µM)
